Experimental data taken from ChEMBL document CHEMBL1201862, “PubChem BioAssay data set” (2004).
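These data come from cells grown in 96-well plates and exposed to compound for 48 hours at five concentrations. GI50 is the concentration that inhibits growth by half.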 The source made the active and inactive calls. No stated cut-off is given here; in the data, active = GI50 up to about 1.1 µM and inactive = higher.

Legend:
Assay in all cases: NCI tumour cell line growth inhibition, 48 h
[1] = tested on: UACC-257
[2] = tested on: HCC 2998
[3] = tested on: A549
[4] = tested on: SK-OV-3
[5] = tested on: SF-539
[6] = tested on: NCI-H460
[7] = tested on: UO-31
[8] = tested on: SF-268
[9] = tested on: TK-10
[10] = tested on: EKVX
[11] = tested on: RXF 393
[12] = tested on: HT-29
[13] = tested on: KM-20L2
[14] = tested on: RPMI-8226
[15] = tested on: OVCAR-4
[16] = tested on: SR
[17] = tested on: NCI/ADR-RES
[18] = tested on: MDA-MB-435
[19] = tested on: DU-145
[20] = tested on: MCF7

SMILES	GI50 [1]	GI50 [2]	GI50 [3]	GI50 [4]	GI50 [5]	GI50 [6]	GI50 [7]	GI50 [8]	GI50 [9]	GI50 [10]	GI50 [11]	GI50 [12]	GI50 [13]	GI50 [14]	GI50 [15]	GI50 [16]	GI50 [17]	GI50 [18]	GI50 [19]	GI50 [20]
CC#C[C@@]1(O)CCCCC1O (stereo partly drawn)	> 100 µM (inactive)	> 100 µM (inactive)	> 100 µM (inactive)	> 100 µM (inactive)	> 100 µM (inactive)	> 100 µM (inactive)	> 100 µM (inactive)	> 100 µM (inactive)	> 100 µM (inactive)	> 100 µM (inactive)	> 100 µM (inactive)	> 100 µM (inactive)	> 100 µM (inactive)	> 100 µM (inactive)	> 100 µM (inactive)					
COc1ccc(C(=O)O)c(Br)c1OCc1ccccc1			> 100 µM (inactive)	> 100 µM (inactive)	> 100 µM (inactive)	> 100 µM (inactive)	88.3 µM (inactive)	> 100 µM (inactive)	> 100 µM (inactive)	> 100 µM (inactive)	> 100 µM (inactive)	> 100 µM (inactive)	> 100 µM (inactive)	> 100 µM (inactive)	> 100 µM (inactive)					
CCc1cccc(C)c1NC(=O)CCc1nnc2s/c(=C\c3cccc4ccccc34)c(=O)n12	> 100 µM (inactive)	> 100 µM (inactive)	> 100 µM (inactive)	> 100 µM (inactive)	> 100 µM (inactive)	> 100 µM (inactive)	> 100 µM (inactive)	> 100 µM (inactive)	> 100 µM (inactive)		> 100 µM (inactive)	> 100 µM (inactive)	> 100 µM (inactive)	23.8 µM (inactive)	> 100 µM (inactive)					
CC(=O)Oc1c2c(c(O)c3ccccc13)C(n1cnc3c(ncn3C3OC(CO)C4OC(C)(C)OC43)c1=N)CCC2 (stereo not drawn)	10.2 µM (inactive)	15 µM (inactive)	19.1 µM (inactive)	19 µM (inactive)	18.2 µM (inactive)	23.3 µM (inactive)	16.2 µM (inactive)	16.4 µM (inactive)	21.5 µM (inactive)	22.2 µM (inactive)	18.3 µM (inactive)	13.2 µM (inactive)	21.6 µM (inactive)	3.1 µM (inactive)						
COc1ccc2ccc([Se]c3ccc4ccc(OC)cc4c3)cc2c1	> 100 µM (inactive)	> 100 µM (inactive)	> 100 µM (inactive)	> 100 µM (inactive)	> 100 µM (inactive)	89.1 µM (inactive)	23.7 µM (inactive)	61.1 µM (inactive)	> 100 µM (inactive)		70 µM (inactive)	50.1 µM (inactive)	> 100 µM (inactive)	49.9 µM (inactive)	20.6 µM (inactive)					
O=C(Cc1nc2ccccc2o1)C(=O)Nc1ccccc1C(F)(F)F	> 100 µM (inactive)	> 100 µM (inactive)	> 100 µM (inactive)	> 100 µM (inactive)	> 100 µM (inactive)	> 100 µM (inactive)	> 100 µM (inactive)	> 100 µM (inactive)	> 100 µM (inactive)	> 100 µM (inactive)	> 100 µM (inactive)	> 100 µM (inactive)	> 100 µM (inactive)	> 100 µM (inactive)	> 100 µM (inactive)					
O/N=C(\C(=N/O)Nc1ccc(-c2ccc(NC(=N/O)/C(=N\O)c3ccccc3)cc2)cc1)c1ccccc1	29.9 µM (inactive)	0.214 µM (active)	31.5 µM (inactive)	17.5 µM (inactive)	18.9 µM (inactive)	17.3 µM (inactive)	31.8 µM (inactive)	27.4 µM (inactive)	36.8 µM (inactive)	20.4 µM (inactive)		13.6 µM (inactive)	18.9 µM (inactive)	25.9 µM (inactive)						
COC(=O)[C@@H]1C=C[C@H](OC2OC(COC(C)=O)C(OC(C)=O)C(OC(C)=O)C2OC(C)=O)n2c(=O)c3ccccc3c(=O)n21 (stereo partly drawn)	17.2 µM (inactive)	16.1 µM (inactive)	21.4 µM (inactive)	14.6 µM (inactive)	15.7 µM (inactive)	12.3 µM (inactive)	14.4 µM (inactive)	> 10 µM (inactive)	2.91 µM (inactive)	16.5 µM (inactive)	6.05 µM (inactive)	7.21 µM (inactive)		4.66 µM (inactive)	16.6 µM (inactive)	4.82 µM (inactive)	19.8 µM (inactive)	9.16 µM (inactive)	16.1 µM (inactive)	8.61 µM (inactive)
COc1cc2c(cc1O)NC(=O)[C@@H]1C[C@@H](O)CN1C2=O	> 100 µM (inactive)	> 100 µM (inactive)	> 100 µM (inactive)	> 100 µM (inactive)	43.8 µM (inactive)	72.4 µM (inactive)	64.4 µM (inactive)	88.1 µM (inactive)	> 100 µM (inactive)	> 100 µM (inactive)	> 100 µM (inactive)	72.6 µM (inactive)		45.6 µM (inactive)	> 100 µM (inactive)	39.9 µM (inactive)	11.4 µM (inactive)	91.6 µM (inactive)	> 100 µM (inactive)	> 100 µM (inactive)
CCCCCCCCCCCCCCCCNc1nc(=O)n(C2CC(O)C(CO)O2)cc1F (stereo not drawn)	16.7 µM (inactive)	0.071 µM (active)	0.94 µM (active)	13.5 µM (inactive)	0.284 µM (active)	10.7 µM (inactive)	1.4 µM (inactive)	2.93 µM (inactive)	11.9 µM (inactive)	14.6 µM (inactive)	13.5 µM (inactive)	9.84 µM (inactive)		15.8 µM (inactive)	15.7 µM (inactive)	4.01 µM (inactive)	2.86 µM (inactive)	12.2 µM (inactive)	10 µM (inactive)	1.33 µM (inactive)
C=CCC1CC(n2cc(C)c(=O)[nH]c2=O)OC1CO[Si](C)(C)C(C)(C)C (stereo not drawn)	17.2 µM (inactive)	17.9 µM (inactive)	12.3 µM (inactive)	14 µM (inactive)	13.8 µM (inactive)	16.5 µM (inactive)	11.4 µM (inactive)	15.6 µM (inactive)	15.8 µM (inactive)	7.52 µM (inactive)	4.06 µM (inactive)	15.9 µM (inactive)		11.9 µM (inactive)	12.1 µM (inactive)	0.0925 µM (active)	15.1 µM (inactive)	13.4 µM (inactive)	13.5 µM (inactive)	11.5 µM (inactive)
CC(=O)NC(CCCN(Cc1ccccc1)C(=O)N(C)N=O)C(=O)NCc1ccccc1 (stereo not drawn)	> 100 µM (inactive)	> 100 µM (inactive)	> 100 µM (inactive)	> 100 µM (inactive)	> 100 µM (inactive)	> 100 µM (inactive)	> 100 µM (inactive)	95.3 µM (inactive)	> 100 µM (inactive)	> 100 µM (inactive)	> 100 µM (inactive)	> 100 µM (inactive)	> 100 µM (inactive)	> 100 µM (inactive)	> 100 µM (inactive)					
COC(=O)C(=O)C(CC(=O)Nc1cccc(C(F)(F)F)c1)C(=O)OC (stereo not drawn)		> 100 µM (inactive)	> 100 µM (inactive)	> 100 µM (inactive)	> 100 µM (inactive)	> 100 µM (inactive)	> 100 µM (inactive)	> 100 µM (inactive)	> 100 µM (inactive)	> 100 µM (inactive)	> 100 µM (inactive)		> 100 µM (inactive)	> 100 µM (inactive)	> 100 µM (inactive)					
CCCCCc1cc(OC(=O)c2c(O)cc(OC)cc2CCCCC)cc(O)c1C(=O)O		15.3 µM (inactive)	17.8 µM (inactive)	16.7 µM (inactive)	16.8 µM (inactive)	15.9 µM (inactive)	13.6 µM (inactive)	13.2 µM (inactive)	18.6 µM (inactive)	19 µM (inactive)	16 µM (inactive)	14.2 µM (inactive)	18.5 µM (inactive)	14.5 µM (inactive)	20 µM (inactive)					
CCOC(=O)c1cc2c(OC(C)=O)ccc(OC(C)=O)c2s1	1.95 µM (inactive)	8.97 µM (inactive)	10.7 µM (inactive)	9.4 µM (inactive)	1.73 µM (inactive)	5.65 µM (inactive)	1.43 µM (inactive)	1.79 µM (inactive)	6.82 µM (inactive)	2.82 µM (inactive)	1.56 µM (inactive)	3.02 µM (inactive)		2.31 µM (inactive)	4.75 µM (inactive)	3.27 µM (inactive)	2.2 µM (inactive)	2.67 µM (inactive)	4.83 µM (inactive)	3.03 µM (inactive)
Cc1cccc(C(C)(C)C)c1NC(=O)CC1Sc2ccccc2NC1=O (stereo not drawn)	36.2 µM (inactive)	> 100 µM (inactive)	> 100 µM (inactive)	> 100 µM (inactive)	> 100 µM (inactive)	34 µM (inactive)	60.5 µM (inactive)	87.9 µM (inactive)	41.7 µM (inactive)	> 100 µM (inactive)		43 µM (inactive)	> 100 µM (inactive)	19 µM (inactive)	> 100 µM (inactive)					
CC(=O)Nc1nnc(S(=O)(=O)NC(=S)Nc2ccc(Cl)cc2)s1	> 100 µM (inactive)	> 100 µM (inactive)	> 100 µM (inactive)	> 100 µM (inactive)	> 100 µM (inactive)	> 100 µM (inactive)	> 100 µM (inactive)	> 100 µM (inactive)	> 100 µM (inactive)	> 100 µM (inactive)	> 100 µM (inactive)	> 100 µM (inactive)		> 100 µM (inactive)	> 100 µM (inactive)	> 100 µM (inactive)	> 100 µM (inactive)	> 100 µM (inactive)	> 100 µM (inactive)	> 100 µM (inactive)
